The results in this text go back to patent publication US4908384A, “Fatty acid leukotriene synthesis inhibitors” (McNeilab, Inc., priority 1986, dated 1990).

pIC50: −log10 of the molar value.

One test concerns human granulocyte cells. The test is described as follows: Human granulocyte Assay for Lipoxygenase Products (HGALP). Format: cell-based. As to conditions: inhibition of [3H]-lipoxygenase metabolite release; human granulocytes prelabeled with [3H]-arachidonic acid, 10 μM ionophore A23187, 14 μM indomethacin. The protocol: (b) Human granulocyte Assay for Lipoxygenase Products (HGALP)
This test is a measurement of the inhibition of the synthesis or relase of [3H]-labeled lipoxygenase metabolites released or generated from human granulocyte cells that are prelabeled with [3H]-arachidonic acid. These metabolites include the leukotrienes (e.g., LTB4) which are potent mediators of inflammation and allergy. In this test, a granulocyte enriched fraction is prepared from freshly drawn human blood (50 ml/donor) by standard techniques involving unit gravity separation on ficoll hypaque. […] After washing out unincorporated label, the radiolabeled cells are brought up in incubation buffer (Minimum Essential Medium containing 14 μM indomethacin) to a 10^7 cell/ml concentration. […] Cell suspensions are challeged with 10 μM ionophore A23187 to […], incubations are terminated by the addition of 1 ml ice cold phosphate buffered saline, and cells are pelleted by centrifugation. Supernatants are passed through C18 Sep Pak® cartridges which are then washed twice with 1 ml water. Lipoxygenase metabolites are eluted with two 1 ml volumes of methanol. Eluates are collected in scintillation vials and counted in Aqueous Counting Scintillant (ACS). Radioactivity eluted with methanol is a measure of lipoxygenase metabolites. Values are normalized to vehicle (5 μl DMSO) treated controls and expressed as percent inhibition. Triplicate determinations at each drug concentration are analyzed as log-dose response curves by linear regression analysis from which IC50 values are derived.
(§1) The results of the IMCPS and the HGALP tests, employing the administration of various illustrative compounds of the present invention, are shown in Table I. The compounds are of the formula (I) wherein R^1, R^2, R^3, A and Y are as shown, R^4 and R^5 are hydrogen and k is 3.

Test [1] deals with guinea pig lung parenchymal tissue. The test is described as follows: Immunologically Mediated Contraction of the Parenchymal Strip (IMCPS). The format is cell-based. Particulars: Cavia porcellus, inhibition of egg albumin-induced contraction of sensitized guinea pig lung strip, 30 min preincubation, chlorpheniramine 10 μM and indomethacin 100 μM present, active if >=15%, read-out: IMCPS % Inhib @ 100 μM. As for the experimental part: (a) Immunogically Mediated Contraction of the Parenchymal Strip (IMCPS)
It is a modification of the procedure published by K. Forsberg and L. Sorenby in Agents and Actions, Vol. 9 pp. 364-368 (1978). In this test, male Hartley strain guinea pigs weighting 400 to 600 g were sensitized by subcutaneous administration of chicken egg albumin (Sigma A-5503, 1.0 mg, 0.5% solution) and bordetella pertussis, 11×10^9 cells (MassachusettsPublic health Biological Labs) 4 to 8 weeks prior to the experiment. The animals were sacrificed, the heart and lungs were removed en bloc and placed in Krebs solution at room temperature. Lung strips (2.5 cm in length) were cut from the perihperal edge of each lobe. Two strips were removed from each animal and were trimmed to be of equal length. Each strip was suspended in an isolated organ bath (10.0 ml) containing oxygenated Krebs buffer solution at 37.5° C. then attached to a force displacement transducer (Grass FTO3) and placed under an initial tension of 1.0 g. The tissues were allowed to equilibrate for 45-60 min, during which the bathing solution was changed several times. At the end of the equilbration period, chlorpheniramine (10.0μM) and indomethacin (100.0μM) were added to eliminate the contribution of histamine and prostaglandins to the contractile response. The two tissues from each animal were matched so that one tissue served as a control and the test drug dissolved in DMSO was added to the bath containing the other tissue at a final concentration of 100μM. After 30 min, egg albumin was added to each bath and the contractile response was measured as milligrams of tension developed as recorded on a Grass Model 7D polygraph.
as §1

For orientation: pIC50 means −log10 of the IC50, conventionally taken in molar units. With `CCCCCCCCCCCCC(O)CC#CCCCC(=O)O` (stereo not shown) [Example 1d, 8-Hydroxy-5-eicosynoic acid], the pIC50 in the test on human granulocyte cells was 4.92. Also, the inhibition at 100 µM in test [1] was 20 to 43%.
For `CCCCCCCCCCCCC(O)C/C=C\CCCC(=O)O` (stereo not shown) [Example 2, 8-Hydroxy-5(Z)-eicosenoic Acid], in that order: 5.12 and 19%.
For `CCCCCCCCCCCCC(=O)C/C=C\CCCC(=O)O` [Example 3, 8-oxo-5-(Z)-eicosenoic Acid], in that order: 4.89 and 24%.
For `CCCCCCCCCCCCC(=O)CC#CCCCC(=O)O` [Example 4, 8-Oxo-5-eicosynoic Acid], in that order: 5.31 and 22%.
With `O=C(O)CCCC#CCC(O)CCc1ccccc1` (stereo not shown) [Example 5, 8-Hydroxy-10-phenyl-5-decynoic Acid Hydrate (10:1)], the pIC50 in the test on human granulocyte cells is 4.85. Also, in test [1], the inhibition at 100 µM was in the range of 9 to 14%.
Consider `O=C(O)CCC/C=C\CC(O)CCc1ccccc1` (stereo not shown) [Example 6, 8-Hydroxy-10-phenyl-5(Z)-decenoic Acid], for which the pIC50 in the test with human granulocyte cells was 4.89. The inhibition at 100 µM in test [1] turned out to be 9%.
In the same order, the values of `CCCCCc1ccc(OCC(O)CC#CCCCC(=O)O)cc1` (stereo not shown) [Example 7b, 8-Hydroxy-9(4-pentylphenoxy)-5-nonynoic acid] are 4.92 and 29%.
On to `CCCCCc1ccc(OCC(O)CC#CCCCC(=O)OC)cc1` (stereo not shown) [Example 8, Methyl 8-Hydroxy-9-(4-pentylphenoxy)-5-nonynoate], for which the negative-log IC50 (pIC50) in the test with human granulocyte cells was 5.10. For the same molecule, the inhibition at 100 µM in test [1] is 14%.
In the same order, the values of `CCCCCc1ccc(OCC(O)C/C=C\CCCC(=O)OC)cc1` (stereo not shown) [Example 9, Methyl 8-Hydroxy-9-(4-pentylphenoxy)-5(Z)-nonenoate] are 4.85 and 0%.
For `CCCCCc1ccc(OCC(O)C/C=C\CCCC(=O)O)cc1` (stereo not shown) [Example 10, 8-Hydroxy-9-(4-pentylphenoxy)-5-(Z)-nonenoic acid], in that order: 5.02 to 5.96 and 28.5%.
In the case of `CCCCCc1ccc(OCC(C/C=C\CCCC(=O)OC)SC(C)=O)cc1` (stereo not shown) [Example 11, Methyl 8-(Acetylthio)-9-(4-pentylphenoxy)-5-(Z)-nonenoate], in the test on human granulocyte cells, the pIC50 is 5.07. The inhibition at 100 µM in test [1] came out at 3%.
For `CCCCCc1ccc(OCC(S)CC#CCCCC(=O)O)cc1` (stereo not shown) [Example 12b, 8-Mercapto-9-(4-pentylphenoxy)-5-nonynoic acid], in that order: 4.89 and 29%.
In the same order, the values of `CCCCCc1ccc(OCC(O)CCCCCCC(=O)O)cc1` (stereo not shown) [Example 13, 8-Hydroxy-9-(4-pentylphenoxy)nonanoic Acid] are 5.64 and 6%.
Regarding `CCCCCOc1ccc(OCC(O)CC#CCCCC(=O)O)cc1` (stereo not shown) [Example 14b, 8-Hydroxy-9-(4-pentoxyphenoxy)-5-nonynoic acid], in the test on human granulocyte cells, the negative logarithm of the IC50 (pIC50) was 4.48. Moreover, the inhibition at 100 µM in test [1] lay in the range of 0 to 30%.
